This is an account of results in publication PMC3199943, “Screening the MayBridge Rule of 3 Fragment Library for Compounds That Interact with the Trypanosoma brucei myo-Inositol-3-Phosphate Synthase and/or Show Trypanocidal Activity” (Molecular Biology International, 2011).

SMILES strings stand for the structures. Read-outs that look alike come from different tables or passages of the source.

One test addresses T1, TbINO1 (Trypanosoma brucei brucei, UniProt Q5QQ46).
T1 sequence (Q5QQ46 1-528): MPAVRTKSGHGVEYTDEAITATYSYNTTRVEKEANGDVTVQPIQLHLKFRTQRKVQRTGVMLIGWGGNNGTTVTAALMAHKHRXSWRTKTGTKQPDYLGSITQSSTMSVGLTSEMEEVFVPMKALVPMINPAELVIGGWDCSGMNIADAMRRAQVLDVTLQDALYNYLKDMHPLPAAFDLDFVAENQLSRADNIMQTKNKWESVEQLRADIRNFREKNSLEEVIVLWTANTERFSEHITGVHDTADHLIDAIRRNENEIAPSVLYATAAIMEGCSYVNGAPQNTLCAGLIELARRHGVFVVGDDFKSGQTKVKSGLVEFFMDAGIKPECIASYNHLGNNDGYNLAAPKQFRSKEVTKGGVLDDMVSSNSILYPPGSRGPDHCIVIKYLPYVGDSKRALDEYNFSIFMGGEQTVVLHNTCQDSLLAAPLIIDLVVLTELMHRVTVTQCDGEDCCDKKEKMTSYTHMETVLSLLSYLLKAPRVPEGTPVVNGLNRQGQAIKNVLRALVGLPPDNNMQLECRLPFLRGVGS
Kind of test: biochemical. In kind it is binding.

In a further test the test system is HeLa cells. Kind of test: cells. The note with it: for viability at 500 µM: 65 h; for HeLa Cells Alamar Blue: Supplementary Table 1, compound 0.5 mM, percentage of controls, mean ± SD (n=3) or SE (n=2). In outline:
(§1)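 Seed HeLa/A549 at 2 × 10^4 cells/well in DMEM/10% FCS/2 mM L-Gln; treat ~65 h; add Alamar Blue, 5 h more.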

For another test, the system named is A549 cells. Briefly: Cytotoxicity against A549 cells, Alamar Blue. In kind it is cell-based. The note with it: Supplementary Table 1, compound 0.5 mM, percentage of controls (n=1); for viability at 500 µM: Homo sapiens, A549, 65 h. The method, boiled down:
as §1
(The colour change of resazurin is a common sign of viable cells or microbes.)

Where [1] appears, read: read-out: Tb Ino1 Tm Shift [˚C].
Where [2] appears, read: Homo sapiens, HeLa, read-out: HeLa Cells Alamar Blue.
Where [3] appears, read: Supplementary Table 1, compound 1mM, mean ± SD from Boltzman curve fitting.
[4] abbreviates: Homo sapiens, HeLa, read-out: HeLa Cells Alamar Blue (% survival).

Take `COC(=O)c1ccsc1N` [compound 242, methyl 2‐aminothiophene‐3‐carboxylate]: the ΔTm at 1000 µM on TbINO1 (setting [1]) is 0.34 ± 0.08 °C. Moreover, the values for the viability at 500 µM in the test with HeLa cells (setting [2]) and with A549 cells were 37 ± 6.1% and 80.5%, respectively.
For `Nc1cc(-c2cccs2)[nH]n1` [compound 313, 5‐thien‐2‐yl‐1H‐pyrazol‐3‐amine], in that order: 0.69 ± 0.08 °C, 101 ± 18.9% and 81.7%.
In the case of `CC1(C(=O)O)CC2C=CC1C2` (stereo not shown) [compound 205, 2‐methylbicyclo[2.2.1]hept‐5‐ene‐2‐carboxylic acid], on TbINO1 (setting [3]), the “Tb Ino1 Tm Shift [˚C]” value is 0.08 ± 0.08 °C. Further, in the test on HeLa cells, the “HeLa Cells Alamar Blue” value is on record as 92.1 ± 17.2 percentage of controls. The “A549 Cells Alamar Blue” value with A549 cells is 53.8 percentage of controls.
Turning to `CN1CCN(c2ccccc2N)CC1` [compound 561, 2‐(4‐methylpiperazin‐1‐yl)aniline], on TbINO1 (Supplementary Table 1, compound 1mM, mean ± SD from Boltzman curve fitting, read-out: Tb Ino1 Tm Shift [˚C]), the ΔTm at 1000 µM was 0.46 ± 0.07 °C. In addition, the viability at 500 µM with HeLa cells (setting [2]) stood at 74.3 ± 11.7%; in the test on A549 cells it was 101%.
Turning to `Cn1nc(-c2cccs2)cc1N` [compound 450, 1‐methyl‐3‐(2‐thienyl)‐1H‐pyrazol‐5‐amine], on TbINO1 (setting [3]), the “Tb Ino1 Tm Shift [˚C]” value was 1.1 ± 0.06 °C. The “HeLa Cells Alamar Blue” value in the test with HeLa cells is reported as 89.3 ± 5.5 percentage of controls. In the test on A549 cells, the “A549 Cells Alamar Blue” value is on record as 90.7 percentage of controls.
As to `Cc1ccsc1CN` [compound 83, (3‐methyl‐2‐thienyl)methylamine], at TbINO1 (setting [1]), the ΔTm at 1000 µM worked out at 0.43 ± 0.06 °C. For the same molecule, the viability at 500 µM was 95.4 ± 10% in the test on HeLa cells (setting [2]) and 124% with A549 cells.
For `N#Cc1ncccc1N1CCCCC1` [compound 517, 3‐piperidin‐1‐ylpyridine‐2‐carbonitrile], in that order: 0.16 ± 0.07 °C, 51.2 ± 17.9% and 54.7%.
Regarding `O=C1CC(c2ccccc2)=NO1` [compound 272, 3-phenyl-4,5-dihydroisoxazol-5-one], at TbINO1 (read-out: TbIno1 Tm shift [°C]), the ΔTm at 1000 µM turned out to be 3.56 ± 0.06 °C. Besides, the results for the viability at 500 µM in the test with HeLa cells (setting [2]), with HeLa cells (setting [4]) and in the test on A549 cells were 89.4 ± 3.9%, 89.4 ± 3.9% and 61.5%, respectively.
`CCc1ccc(CNC)cc1` [compound 180, N‐(4‐ethylbenzyl)‐N‐methylamine]: at TbINO1 (setting [1]), the ΔTm at 1000 µM was found to be 0.14 ± 0.08 °C. Also, the viability at 500 µM amounted to 99.8 ± 1.1% in the test with HeLa cells (setting [2]) and 87% in the test with A549 cells.
As to `C1CNCCNC1` [compound 13, 1,4‐diazepane], the ΔTm at 1000 µM on TbINO1 (setting [1]) was found to be 0.4 ± 0.07 °C. Further, the viability at 500 µM in the test with HeLa cells (setting [2]) worked out at 88.5 ± 11.1%; in the test with A549 cells, 82.4%.
On the same counts, the results for `c1ccc2c(c1)CCOC2` [compound 110, 3,4‐dihydro‐1H‐benzo[c]pyran] are 0.34 ± 0.06 °C, 88.7 ± 19.2% and 114%.
In the case of `Cc1ccc(C#N)c(N)c1` [compound 97, 2-amino-4-methylbenzonitrile], the ΔTm at 1000 µM on TbINO1 (read-out: TbIno1 Tm shift [°C]) stood at 1.58 ± 0.07 °C. The results for the viability at 500 µM with HeLa cells (setting [2]), in the test on HeLa cells (setting [4]) and in the test on A549 cells were 81.4 ± 7.4%, 81.4 ± 7.4% and 96.2%, respectively.
Take `CC(=O)Nc1ccc2c(c1)CCC2=O` [compound 535, N1‐(1‐oxo‐2,3‐dihydro‐1H‐inden‐5‐yl)acetamide]: on TbINO1 (setting [3]), the “Tb Ino1 Tm Shift [˚C]” value came to 0.21 ± 0.07 °C. In the test on HeLa cells, the “HeLa Cells Alamar Blue” value is 87.3 ± 4.6 percentage of controls. Moreover, in the test with A549 cells, the “A549 Cells Alamar Blue” value is reported as 76.5 percentage of controls.
In the case of `Cn1c(CO)cc2sccc21` [compound 331, (4-methyl-4H-thieno[3,2-b]pyrrol-5-yl)methanol], the ΔTm at 1000 µM on TbINO1 (read-out: TbIno1 Tm shift [°C]) stood at 1.54 ± 0.07 °C. Moreover, the viability at 500 µM in the test with HeLa cells (setting [2]) came to 93.6 ± 14.9%; with HeLa cells (setting [4]), 93.6 ± 14.9%; with A549 cells, 121%. In addition, the CC50 in the test on HeLa cells (Homo sapiens, HeLa, read-out: HeLa ED50) came out at 169 ± 10 µM.
In the case of `OCc1ccc(N2CCCC2)cc1` [compound 427, [4‐(1‐pyrrolidinyl)phenyl]methanol], the ΔTm at 1000 µM on TbINO1 (setting [1]) was determined as 0.35 ± 0.06 °C. The figures for the viability at 500 µM in the test with HeLa cells (setting [2]) and in the test on A549 cells were 59.8 ± 14.4% and 64.2%, respectively.
On the same counts, the results for `Cn1ccc2c(C(=O)O)cccc21` [compound 399, 1‐methyl‐1H‐indole‐4‐carboxylic acid] are 0.63 ± 0.07 °C, 99.3 ± 14.2% and 123%.
For `N#Cc1ccc(O)cc1F` [compound 120, 2‐fluoro‐4‐hydroxybenzonitrile], in that order: 0.41 ± 0.06 °C, 18.6 ± 10.7% and 72.6%.
On the same counts, the results for `N#Cc1ccccc1Oc1ccccc1` [compound 591, 2‐phenoxybenzonitrile] are 0.24 ± 0.06 °C, 93 ± 2.5% and 58.3%.
On to `NCc1ccoc1` [compound 5, 3‐furylmethylamine], for which, on TbINO1 (setting [1]), the ΔTm at 1000 µM turned out to be 0.3 ± 0.06 °C. Further, the viability at 500 µM in the test with HeLa cells (setting [2]) is 101 ± 5.3%; in the test on A549 cells, 113%.
`Cc1cc(C(N)=S)n(C)n1` [compound 227, 1,3‐dimethyl‐1H‐pyrazole‐5‐carbothioamide]: the “Tb Ino1 Tm Shift [˚C]” value at TbINO1 (setting [3]) turned out to be 0.57 ± 0.1 °C. Also, the “HeLa Cells Alamar Blue” value in the test with HeLa cells is given as 106.7 ± 5.8 percentage of controls. Moreover, in the test with A549 cells, the “A549 Cells Alamar Blue” value is listed as 50.9 percentage of controls.
Consider `Cc1csc(CC#N)n1` [compound 126, 2-(4-methyl-1,3-thiazol-2-yl)acetonitrile], for which the ΔTm at 1000 µM at TbINO1 (read-out: TbIno1 Tm shift [°C]) turned out to be 2.1 ± 0.09 °C. Also, the viability at 500 µM with HeLa cells (setting [2]) was determined as 69.7 ± 10.3%; with HeLa cells (setting [4]) it was 69.7 ± 10.3%; with A549 cells, 98.4%.
With `Cn1nc2ccccc2c1CO` [compound 285, (2‐methyl‐2H‐indazol‐3‐yl)methanol], the ΔTm at 1000 µM at TbINO1 (setting [1]) turned out to be 0.29 ± 0.07 °C. Further, the viability at 500 µM with HeLa cells (setting [2]) stood at 73.4 ± 10.6%; in the test with A549 cells, 67.6%.
On the same counts, the results for `Cc1ccc2cc(CO)ccc2n1` [compound 374, (2‐methyl‐6‐quinolinyl)methanol] are 0.1 ± 0.06 °C, 53.2 ± 2.6% and 46.3%.
On the same counts, the results for `O=C(O)CCc1ccco1` [compound 131, 3‐(2‐furyl)propanoic acid] are 1.22 ± 0.09 °C, 69.8 ± 21.4% and 98.1%.
Regarding `Cc1nc(C(N)=S)c[nH]1` [compound 135, 2-methyl-1H-imidazole-4-carbothioamide], the ΔTm at 1000 µM on TbINO1 (read-out: TbIno1 Tm shift [°C]) is 1.74 ± 0.09 °C. Also, the viability at 500 µM in the test on HeLa cells (setting [2]) came out at 90.3 ± 10.9%; in the test with HeLa cells (setting [4]), 90.3 ± 10.9%; in the test on A549 cells, 102%.
In the case of `Cc1cc(C(=O)O)c(C)o1` [compound 130, 2,5‐dimethyl‐3‐furoic acid], the ΔTm at 1000 µM at TbINO1 (setting [1]) was determined as 0.62 ± 0.08 °C. Further, the viability at 500 µM with HeLa cells (setting [2]) came out at 84.7 ± 0.7%; with A549 cells, 121%.
For `NCc1cccc(CN2CCCC2)c1` [compound 550, [3‐(1‐pyrrolidinylmethyl)phenyl]methanamine], the “Tb Ino1 Tm Shift [˚C]” value on TbINO1 (setting [3]) is 0.03 ± 0.07 °C. Moreover, the “HeLa Cells Alamar Blue” value with HeLa cells was 47.8 ± 11.7 percentage of controls. For the same molecule, the “A549 Cells Alamar Blue” value with A549 cells was 108.7 percentage of controls.
Turning to `Nc1ccc(CN2CCOCC2)cc1` [compound 567, 4‐(morpholinomethyl)aniline], on TbINO1 (setting [1]), the ΔTm at 1000 µM turned out to be 0.61 ± 0.05 °C. For the same molecule, the values for the viability at 500 µM in the test with HeLa cells (setting [2]) and in the test with A549 cells were 90.1 ± 15.9% and 103%, respectively.
`CC(C)(C)OC(=O)Nc1ccsc1` [compound 619, tert‐butyl N‐(3‐thienyl)carbamate]: the ΔTm at 1000 µM at TbINO1 (setting [1]) was found to be 0.21 ± 0.07 °C. Also, the values for the viability at 500 µM in the test with HeLa cells (setting [2]) and in the test on A549 cells were 80 ± 17.5% and 74.9%, respectively.
For `Cn1ccc2cc(C(=O)O)ccc21` [compound 394, 1‐methyl‐1H‐indole‐5‐carboxylic acid], in that order: 0 °C, 95 ± 12.2% and 82%.
For `COC(=O)c1cccc2cc[nH]c12` [compound 396, methyl 1H‐indole‐7‐carboxylate], in that order: 0.12 ± 0.11 °C, 36.5 ± 11.9% and 164%.
Turning to `O=C(O)CCC(=O)c1cccs1` [compound 478, 4-oxo-4-(2-thienyl)butanoic acid], the ΔTm at 1000 µM on TbINO1 (read-out: TbIno1 Tm shift [°C]) stood at 2.58 ± 0.05 °C. Besides, the viability at 500 µM amounted to 106 ± 9.3% in the test with HeLa cells (setting [2]), 106 ± 9.3% with HeLa cells (setting [4]) and 92.3% with A549 cells.
With `O=C(O)c1ccc(-c2ccccc2)nc1` [compound 610, 6‐phenylnicotinic acid], the ΔTm at 1000 µM at TbINO1 (setting [1]) was 0.46 ± 0.06 °C. Further, the viability at 500 µM in the test with HeLa cells (setting [2]) is 82.3 ± 8.2%; in the test with A549 cells, 125%.
For `O=C(O)Cc1ccccc1O` [compound 201, 2‐(2‐hydroxyphenyl)acetic acid], in that order: 0.65 ± 0.08 °C, 94.1 ± 15.7% and 94.2%.
